Literature values in US8298992B2, “Low odor, low volatility solvent for agricultural chemicals” (Huntsman Petrochemical LLC, priority 2006, dated 2012).

Conditions: solubility data available for a dimethyamide (comparison)

- Solubility in Water (wt %): 3.8% wt %
Structure (SMILES): CCCCCCCCCC(=O)N(C)C [N,N-dimethyldecanamide]
